For this assay, the system named is dinitrofluorobenzene-induced ear edema. Kind of assay: Suppressive action on dinitrofluorobenzene-induced ear edema reaction in mouse. Conditions: topical, test compound 1% (w/v) in acetone applied to front and back of auricle 1 hr before and 3 hr after induction, auricle thickness 24 hr after induction, female mice, read-out: ear edema suppressive rate (%). The class given is in vivo, BALB/c mice (printed BALE/c). On the procedure:
5-Week to 6-week old BALE/c mice (female, supplied by CHARLES RIVER LABORATORIES JAPAN, INC) were purchased and, after quarantine and habituation, those showing satisfactory body weight increase and free of abnormal appearance were used to start the test from 7 weeks of age. The animals were housed and bred in plastic cages (6 mice per cage) in a breeding chamber set at room temperature 19-25° C., humidity 30-70%, 12 hr illumination per day (7 a.m.-7 p.m.), with free access to a commercially available solid feed and water.
One day before the test, the abdomen was shaved, and a solution of dinitrofluorobenzene (manufactured by Nacalai Tesque) in acetone (manufactured by Wako Pure Chemical Industries, Ltd.) {concentration 0.5% [weight (w)/volume (v) %]} was applied to the shaved part of BALE/c mice by 100 μL for sensitization. On day 5 after sensitization, a dinitrofluorobenzene-acetone solution [concentration 0.2% (w/v %)] was applied to the front and the back of the auricle by 10 μL each (total 20 μL) to induce reaction. A test compound dissolved in acetone to the concentration of 1% (w/v %) was applied to the front and the back of the auricle 1 hr before and 3 hr after the induction of reaction each by 10 μL or 40 μL (total 20 μL or 80 μL). After the application, the applied part was air-dried by a dryer.
A group administered with the test compound by coating was taken as a test compound administration group, and a group administered with acetone (solvent) by coating instead of the test compound was taken as a solvent administration group. In addition, a group free of sensitization and induction of reaction and administered with acetone by coating instead of the test compound was taken as a normal group. The thickness of the auricle was measured immediately before induction of reaction and 24 hr after the induction with a dial thickness gauge (manufactured by OZAKI MFG. CO., LTD., G-1A), and the difference between them was taken as ear edema. The ear edema suppressive rate (%) was calculated according to the following formula.
Regarding `CS(=O)(=O)NC(=O)c1cnn2c(NCc3ccccc3)c(C(=O)N3CCC(c4ccccc4)CC3)cnc12` [a-1, N-[7-Benzylamino-6-(4-phenylpiperidine-1-carbonyl)pyrazolo[1,5-a]pyrimidine-3-carbonyl]methanesulfonamide], the inhibition in vivo at 1 % is 20%. As to `CCS(=O)(=O)NC(=O)c1cnn2c(Nc3ccc(F)cc3C)c(C(=O)N3CCC(c4ccccc4)CC3)cnc12` [a-57, N-[7-(4-Fluoro-2-methylphenylamino)-6-(4-phenylpiperidine-1-carbonyl)pyrazolo[1,5-a]pyrimidine-3-carbonyl]ethanesulfonamide], the inhibition in vivo at 1 % turned out to be 35%. In the case of `CCS(=O)(=O)NC(=O)c1cnn2c(Nc3cc(C)ccc3F)c(C(=O)N3CCC(c4ccccc4)CC3)cnc12` [a-59, N-[7-(2-Fluoro-5-methylphenylamino)-6-(4-phenylpiperidine-1-carbonyl)pyrazolo[1,5-a]pyrimidine-3-carbonyl]ethanesulfonamide], the inhibition in vivo at 1 % was found to be 6%. Take `CCS(=O)(=O)NC(=O)c1cnn2c(Nc3cc(C)ccc3F)c(C(=O)N3CCC(c4ccc(F)cc4)CC3)cnc12` [a-81, N-{7-(2-Fluoro-5-methylphenylamino)-6-[4-(4-fluorophenyl)piperidine-1-carbonyl]pyrazolo[1,5-a]pyrimidine-3-carbonyl}ethanesulfonamide]: the inhibition in vivo at 1 % worked out at 25%. Turning to `CCS(=O)(=O)NC(=O)c1cnn2c(Nc3ccc(F)cc3C)c(C(=O)N3CCC(c4ccc(F)cc4)CC3)cnc12` [a-84, N-{7-(4-Fluoro-2-methylphenylamino)-6-[4-(4-fluorophenyl)piperidine-1-carbonyl]pyrazolo[1,5-a]pyrimidine-3-carbonyl}ethanesulfonamide], the inhibition in vivo at 1 % was 25%.

`CS(=O)(=O)NC(=O)c1cnn2c(NCc3ccccc3)c(C(=O)N3CCC(F)(c4ccccc4)CC3)cnc12` [a-96, N-[7-Benzylamino-6-(4-fluoro-4-phenylpiperidine-1-carbonyl)pyrazolo[1,5-a]pyrimidine-3-carbonyl]methanesulfonamide]: the inhibition in vivo at 1 % was 10%. As for `O=C(NS(=O)(=O)C1CC1)c1cnn2c(NCc3ccccc3)c(C(=O)N3CCC4(CC3)COc3ccccc34)cnc12` [a-126, N-[7-Benzylamino-6-(2H-spiro[benzofuran-3,4′-piperidine]-1′-ylcarbonyl)pyrazolo[1,5-a]pyrimidine-3-carbonyl]cyclopropanesulfonamide], the figure is 10%; as for `CCS(=O)(=O)NC(=O)c1cnn2c(Nc3cc(C)ccc3C)c(C(=O)N3CCC4(CC3)COc3cc(F)ccc34)cnc12` [a-137, N-[7-(2,5-Dimethylphenylamino)-6-(6-fluoro-2H-spiro[benzofuran-3,4′-piperidine]-1′-ylcarbonyl)pyrazolo[1,5-a]pyrimidine-3-carbonyl]ethanesulfonamide], 5%.

The values are drawn from US8729264B2, “Agent for prevention and/or treatment of skin diseases” (Kyowa Hakko Kirin Co., Ltd., priority 2007, dated 2014).
